Laboratory results as given in patent publication US5948884A, “Cyclosporin derivatives with anti-HIV effect” (priority 1995, dated 1999).
Converted amounts (≈) assume the structure as drawn.

Tests used:
[1] = tested on: HIV-1 (strain IIIB); conditions: MT4 cells infected with HIV-1 IIIB; p24 ELISA on third and fourth days after infection
Description: Test for Antiviral Activity
HIV-1 (strain IIIB) was adsorbed on the cells for 2 hours at 37°. The inoculum was then removed and the infected cells were transferred to tissue culture plates which contained the test compound at different concentrations. In this context, the virus inoculum was chosen such that the concentration of viral p24 antigen increased exponentially in the cell supernatant up to the fourth day after the infection. On the third and fourth days after the infection, the cell supernatants were analyzed by ELISA for p24 antigen. IC50 values were determined by comparing the p24 concentrations in the supernatant from the infected, substance-treated cells and in the supernatant from the untreated infected control cells.

[2] = tested on: HIV; conditions: relative to the most strongly active substances of EP 484 281; cited from earlier work

Compound	IC50 (p24 antigen in cell supernatant) [1] [µg/mL]	activity against HIV, times weaker than MeIle-4-cyclosporin or MeVal-4-cyclosporin [2]
C/C=C/C[C@@H](C)[C@@H](O)[C@H]1C(=O)N[C@@H](CC)C(=O)N(C)[C@H](CO)C(=O)N(C)[C@@H](CC(C)(C)O)C(=O)N[C@@H](C(C)C)C(=O)N(C)[C@@H](CC(C)C)C(=O)N[C@@H](C)C(=O)N[C@H](C)C(=O)N(C)[C@@H](CC(C)C)C(=O)N(C)[C@@H](CC(C)C)C(=O)N(C)[C@@H](C(C)C)C(=O)N1C [3-N-methyl-(D)-serine-4-(gamma-hydroxy)-N-methylleucinecyclosporin]	0.1 (≈ 0.0801 µM)	–
(gamma-hydroxy-N-methylleucine)cyclosporin	–	5-6 times
